{
  "source": "patent US20220089602A1",
  "about": "“COMPOUNDS THAT INDUCE FERROPTIC CELL DEATH” (The Board of Trustees of the University of Illinois, priority 2019, published 2022)",
  "key": {"[1]": {"tested_on": "human skin fibroblast (HFF-1) cells", "assay": "Cell viability IC50 in non-cancerous cells", "assay_type": "cell-based", "method": "(§1) To a 384-well plate, 40 μL of 1.25× compound dilution or 1.25% DMSO-containing media was added (final volume of 1% DMSO). Concentrations of compounds tested were 100 μM to 100 nM. On each plate at least 3 technical replicates per compound were performed. Next, 10 μL of a 100,000 cells/mL suspension was added to each well, yielding a final concentration of 1,000 cells/well. To three wells in column 2 was added 1 μL of 10 mM doxorubicin (final concentration of 200 μM) as positive control of cell death. Plates were sealed with gas-permeable seals and incubated at 37° C. for 72 h. At that time, 5 μL of Alamar blue (440 μM resazurin in sterile PBS) was added and plates were incubated for 3-4 hours. Fluorescence was read on a Molecular Devices SpectraMax 3 (excitation=555 nm, emission=585 nm, emission cutoff=570 nm). Wells were normalized to the average of untreated wells (0% cell death). The data were plotted as compound concentration versus percent dead cells and fitted to a logistic-dose response curve using OriginPro 2015 (OriginLab, Northampton, Mass.). The data were generated in triplicate, and IC50 values are reported as the average of three separate experiments along with standard error of the mean."}, "[2]": {"tested_on": "non-cancerous breast (MCF10A) cells", "assay": "Cell viability IC50 in non-cancerous cells", "assay_type": "cell-based", "settings": "Homo sapiens, MCF-10A", "method": "as §1"}, "HT-29 cells": {"tested_on": "HT-29 cells", "assay": "RNA sequencing of treated cells", "assay_type": "cell-based", "settings": "10 μM, 6 hr", "method": "Total RNA was extracted by RNeasy Kit (QIAGEN) and digested with DNase (QIAGEN) from n=2 samples per condition (DMSO, 10 μM ferroptocide cells treated for 6 hr). RNA quality was assessed with a 2100 Agilent Bioanalyzer prior to library preparation. The RNAseq libraries were prepared using the TruSeq Stranded mRNAseq Sample Prep kit (version 1) following manufacturer's instruction (Illumina). Libraries were then quantified, pooled, and sequenced by single-end 150 base pairs using the Illumina HiSeq 4000 platform at the Roy J. Carver Biotechnology center. FASTQ files were generated and demultiplexed with the bcl2FASTQ v2.17.1.14 Conversion Software (Illumina). Libraries were sequenced at an average depth of 40-50 million reads per sample. Trimmomatic (v0.36) was utilized to remove sequencing adapters, low-quality bases (PHRED score <28), and reads less than 30 bases in length. Pseudo-alignment and transcript-level counting to NCBI's GRCh38.p11 transcriptome was then performed with Salmon (v 0.8.2) in quasi-mapping mode while correcting for sequence-specific and GC biases, and generating 30 bootstraps. Counts summarized to the gene level (NCBI annotation release 108) using tximport (v 1.6.0) and the “lengthScaledTPM” method. The counts were normalized using the TMM method from edgeR (v 3.20.5) and then transformed to log 2 counts per million (log CPM) with prior.count=3. Genes without at least log CPM>log 2(0.5) in at least 3 samples were filtered out, leaving 16,743 genes for differential expression testing. TMM normalization was re-done after filtering and then limma's (v 3.34.5) voom method was used to find differentially expressed genes for the pairwise comparisons of treatment vs. control in A549, and treatment vs. control in HT29 (batch 2 and 3, 8 samples total, 6 hr), and the interaction between treatment and cell line. P values were adjusted for multiple hypothesis testing with the Benjamini-Hochberg method to generate false discovery rates. Gene set enrichment analysis was done using ESGEA (v 1.6.1) for the Gene Ontology BP, CC and MF gene sets, KEGG pathway gene sets, and Pathway gene sets. The RNA sequencing data have been deposited to the GEO repository with the accession number GSE126868."}, "[3]": {"tested_on": "4T1 triple negative breast cancer cells", "assay": "4T1 subcutaneous tumor model, immunocompromised mice", "assay_type": "in vivo", "settings": "50 mg/kg i.p., twice a week, five doses, SCID; listed as ferroptocide", "method": "The protocol was approved by the IACUC at the University of Illinois at Urbana-Champaign (Protocol Number: 17192). 9-week old female Balb/C or SCID mice (Charles River) were lightly sedated with i.p. xylazine/ketamine/saline solution. Following sedation, 4T1 murine breast cancer cells suspended in chilled HBSS (100 μL of 4×10^6 cells/mL) were injected subcutaneously into the right flank of shaved and sedated mice using an insulin syringe. On day 8 after inoculation, mice were randomized with 7 mice per group for vehicle or ferroptocide treatment. Vehicle (PEG400) or ferroptocide (50 mg/kg) was administered intraperitoneally as a PEG400 solution twice a week for 5 times. Tumor measurements were performed every 3 or 4 days using a caliper and tumor volume was calculated using the equation (0.5×l×w^2). On day 23 after the 4T1 cells inoculation, mice were sacrificed. Tumors were then surgically removed, and their mass was measured."}, "thioredoxin": {"target": "T1, thioredoxin (Homo sapiens, UniProt P10599)", "T1 construct": "endogenous in cells", "T1 sequence (P10599 whole entry)": "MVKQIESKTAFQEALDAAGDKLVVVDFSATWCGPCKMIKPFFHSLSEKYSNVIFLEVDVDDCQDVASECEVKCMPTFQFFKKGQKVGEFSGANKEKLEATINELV", "assay": "Thioredoxin activity assay in cell lysate", "assay_type": "cell-based", "settings": "30 min treatment, HCT 116 cells; versus PMX464 and PX-12 (50 μM)", "method": "HCT 116 cells (1×10^6 cells/flask) were treated with DMSO, 10 μM ferroptocide, 50 μM PMX464, or 50 μM PX-12 for 30 min. Cells were harvested by centrifugation, resuspended in the assay buffer and lysed via sonication. For each condition, 20 μg of cell lysate was used to measure the activity thioredoxin activity following manufacturer' protocol (Cayman Chemical, Fluorescent Thioredoxin Activity Assay kit #20039) in a 96-well black-walled plate. For in vitro studies, human thioredoxin (10 μL of 0.2 μM solution) was used in addition to thioredoxin reductase (10 μL of 1.0 μM solution), 1 μl of DMSO, ferroptocide, […], or PX-12 at indicated concentrations, 5 μL of NADPH (diluted according to manufacturer's instructions), and assay buffer to a final volume of 75 μL. The plate was incubated at 37° C. for 30 min followed by immediate addition of 20 μL fluorescent substrate per each well (diluted as instructed in the assay kit). Fluorescence was monitored over 1 hr at 520 nm after excitation at 480 nm in a SpectraMax M3 (Molecular Devices) instrument at 37° C."}, "ES-2 cells": {"tested_on": "ES-2 cells", "assay": "Mitochondrial ROS production (MitoSOX Red)", "assay_type": "cell-based", "settings": "1 hr", "method": "ES-2 cells (1×10^5 cells/mL) were plated in 12-well plates and allowed to attach overnight. Cells were treated for 1 hr with DMSO, 10 and 25 μM ferroptocide, 5 μM IB-DNQ, and 10 μM rotenone. Cells were washed with HBSS and incubated in the dark for 10 min with 5 μM MitoSOX Red probe. Cells were then washed 2× with HBSS and harvested at 1000×g, 3 min. After resuspension in 500 μl HBSS buffer, samples were analyzed with flow cytometry to record ten thousand events per sample in the PE channel in BD LSR II Flow Cytometer (BD Bioscience). FCS express V6 De Novo software was used to generate the histogram."}},
  "data": [
    {"smiles": "C[C@@H]1CC[C@@]23C[C@H](O)C(=O)[C@@]2(O)[C@]1(C)[C@H](OC(=O)CCl)C[C@@H](C1=CCn2c(=O)n(-c4ccccc4)c(=O)n2C1)[C@@H]3C", "note": "[Compound P18, ferroptocide]", "values": [
      {"measurement": "IC50", "setting": "[1]", "result": 4.1, "unit": "µM"},
      {"measurement": "IC50", "setting": "[2]", "result": 3.1, "unit": "µM"},
      {"measurement": "genes involved in ferroptosis modulated", "setting": "HT-29 cells; FDR ≤0.05", "result": "35/40"},
      {"measurement": "ATF3 upregulation (RNA-seq)", "setting": "HT-29 cells; HT-29", "result": 11.5, "unit": "fold"},
      {"measurement": "CHAC1 upregulation (RNA-seq)", "setting": "HT-29 cells; HT-29", "result": 9.8, "unit": "fold"},
      {"measurement": "DDIT3 upregulation (RNA-seq)", "setting": "HT-29 cells; HT-29", "result": 22.5, "unit": "fold"},
      {"measurement": "DDIT4 upregulation (RNA-seq)", "setting": "HT-29 cells; HT-29", "result": 11.3, "unit": "fold"},
      {"measurement": "GCLC upregulation (RNA-seq)", "setting": "HT-29 cells; HT-29", "result": 3.5, "unit": "fold"},
      {"measurement": "GCLM upregulation (RNA-seq)", "setting": "HT-29 cells; HT-29", "result": 4.9, "unit": "fold"},
      {"measurement": "SLC7A11 upregulation (RNA-seq)", "setting": "HT-29 cells; HT-29", "result": 8.1, "unit": "fold"},
      {"measurement": "effect on subcutaneous 4T1 tumor growth (in words)", "setting": "[3]", "result": "no effect"},
      {"measurement": "thioredoxin activity in cell lysate", "setting": "thioredoxin", "result": "significantly reduced the activity of thioredoxin"},
      {"measurement": "mitochondrial ROS", "setting": "ES-2 cells", "result": "increase of mitochondrial ROS"}
    ]}
  ]
}
